Reference: patent publication US12122779B2, “Pyrrolo-pyridazine derivatives as muscarinic M1 receptor positive allosteric modulators” (SUVEN LIFE SCIENCES LIMITED, priority 2018, dated 2024)
One block for each molecule: values may come before it.

Assays:
[1] = biological target: T1, recombinant human Muscarinic M1 receptor (Homo sapiens, UniProt P11229); assay: Allosteric potency EC50 for muscarinic M1 receptor, CHO pCRE-Luc reporter cell-based assay with EC20 of acetylcholine; settings: CHO cells, luciferase activity, in presence of EC20 of acetylcholine, 4 hours
T1 sequence (P11229 1-460): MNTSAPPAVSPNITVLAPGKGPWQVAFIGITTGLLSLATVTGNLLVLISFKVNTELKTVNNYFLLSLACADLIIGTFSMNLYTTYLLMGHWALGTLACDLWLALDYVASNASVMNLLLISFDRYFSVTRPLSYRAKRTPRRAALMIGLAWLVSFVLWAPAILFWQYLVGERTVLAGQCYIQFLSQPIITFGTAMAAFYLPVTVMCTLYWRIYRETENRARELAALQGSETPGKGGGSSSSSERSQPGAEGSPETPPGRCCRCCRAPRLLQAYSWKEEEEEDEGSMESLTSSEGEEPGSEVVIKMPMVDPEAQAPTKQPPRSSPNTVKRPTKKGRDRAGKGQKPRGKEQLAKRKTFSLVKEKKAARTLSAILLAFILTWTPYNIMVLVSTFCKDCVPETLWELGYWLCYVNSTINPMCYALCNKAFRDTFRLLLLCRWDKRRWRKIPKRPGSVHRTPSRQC
Procedure: Determination of Allosteric Potency EC50 Values for Muscarinic M1 Receptor
A stable CHO cell line expressing recombinant human Muscarinic M1 receptor and pCRE-Luc reporter system was used for cell-based assay. The assay offers a non-radioactive based approach to determine binding of a compound to GPCRs. In this specific assay, the level of intracellular cyclic AMP which is modulated by activation or inhibition of the receptor is measured. The recombinant cells harbor luciferase reporter gene under the control of cyclic AMP response element.
The above cells were grown in 96 well clear bottom white plates in Hams F12 medium containing 10% fetal bovine serum (FBS). Prior to the addition of compounds or standard agonist, cells were serum starved overnight. Increasing concentrations of test compounds were added along with EC20 of acetylcholine in OptiMEM medium to the cells. The incubation was continued at 37° C. in CO2 incubator for 4 hours. Medium was removed and cells were washed with phosphate buffered saline. The cells were lysed and luciferase activity was measured in a Luminometer. Luminescence units were plotted against the compound concentrations using Graphpad software.

[2] = Rodent pharmacokinetic study; format: in vivo, Male Wistar rats; settings: male, Wistar, plasma, rat; for bioavailability: oral 3 mg/kg vs intravenous 1 mg/kg, read-out: F (%) Bioavailability
Procedure: Rodent Pharmacokinetic Study
Male Wistar rats (260±50 grams) were used as experimental animals. Animals were housed individually in polypropylene cage. Two days prior to study, male Wistar rats were anesthetized with isoflurane for surgical placement of jugular vein catheter. Rats were randomly divided for oral (3 mg/kg) and intravenous (1 mg/kg) dosing (n=3/group) and fasted overnight before oral dosing (p.o.). However, rats allocated to intravenous dosing food and water was provided ad libitum.
At pre-determined point, blood was collected through jugular vein and replenished with an equivalent volume of normal saline. Collected blood was transferred into a labeled eppendorf tube containing 10 μL of heparin as an anticoagulant. Typically blood samples were collected at following time points: 0.08, 0.25, 0.5, 1, 2, 4, 6, 8, and 24 h post dose. Blood was centrifuged at 4000 rpm for 10 minutes. Plasma was separated and stored frozen at −80° C. until analysis. The concentrations of the test compounds were quantified in plasma by qualified LC-MS/MS method using suitable extraction technique. The test compounds were quantified in the calibration range around 1-1000 ng/mL in plasma. Study samples were analyzed using calibration samples in the batch and quality control samples spread across the batch.
Pharmacokinetic parameters Cmax, AUCt, T1/2, Clearance and Bioavailability (F) were calculated by non-compartmental model using standard non-compartmental model by using Phoenix WinNonlin 6.0.4 version Software package.

[3] = Rodent brain penetration study; format: in vivo, Male Wistar rats; settings: male, Wistar, brain and plasma, po; rat, 3 mg/kg p.o., brain-plasma ratio; read-out: Single dose Rat Brain Penetration (Cb/Cp) at 3 mg/kg, p.o.
Procedure: Rodent Brain Penetration Study
Male Wistar rats (260±40 grams) were used as experimental animals. Three animals were housed in each cage. Animals were given water and food ad libitum throughout the experiment and maintained on a 12 h light/dark cycle.
Brain penetration was determined in discrete manner in rats. One day prior to dosing day, male Wistar rats were acclimatized and randomly grouped according to their weight. At each time point (0.50, 1 and 2 h) n=3 animals were used.
The test compounds were suitably preformulated and administered orally at (free base equivalent) 3 mg/kg. Blood samples were removed via cardiac puncture by using isoflurane anesthesia. The animals were sacrificed to collect brain tissue. Plasma was separated and brain samples were homogenized and stored frozen at −20° C. until analysis. The concentrations of the test compounds in plasma and brain were determined using LC-MS/MS method.
The test compounds were quantified in plasma and brain homogenate by qualified LC-MS/MS method using suitable extraction technique. The test compounds were quantified in the calibration range of 1-500 ng/mL in plasma and brain homogenate. Study samples were analyzed using calibration samples in the batch and quality control samples spread across the batch. Extent of brain-plasma ratio (Cb/Cp) was calculated.

- EC50 [1]: 1660 nM
Structure (SMILES): Cn1cc(-c2ccc(Cc3cc(C(=O)NCC4(O)CCOCC4)nn4cccc34)cc2)cn1 [Example 22, N-[4-Hydroxy-tetrahydro-pyran-4-ylmethyl] 4-[4-(1-methyl-1H-pyrazol-4-yl)-benzyl]-pyrrolo[1,2-b]pyridazine-2-carboxamide]

- EC50 [1]: 1900 nM
Structure (SMILES): CC(C)C(CO)NC(=O)c1cc(Cc2ccc(Br)cc2)c2cccn2n1 (stereo not drawn) [Example 17, N-[1-Hydroxymethyl-2-methylpropyl]-4-(4-bromobenzyl)-pyrrolo[1,2-b]pyridazine-2-carboxamide]

- EC50 [1]: 336 nM
- AUC(0-t) ([2]; intravenous (bolus), 1 mg/kg): 983 ± 91 ng·h/mL
- clearance ([2]; intravenous (bolus), 1 mg/kg): 17 ± 1.6 mL/min/kg
- half-life ([2]; intravenous (bolus), 1 mg/kg): 0.5 h
- bioavailability [2]: 66 ± 18%
- AUC(0-t) ([2]; oral (gavage), 3 mg/kg): 1940 ± 520 ng·h/mL
- Cmax ([2]; oral (gavage), 3 mg/kg): 933 ± 260 ng/mL
- half-life ([2]; oral (gavage), 3 mg/kg): 1 ± 0.1 h
- Kp [3]: 0.26 ± 0.02
Structure (SMILES): Cn1cc(-c2ccc(Cc3cc(C(=O)NCC(C)(C)O)nn4cccc34)cc2)cn1 [Example 19, N-[2-hydroxy-2-methyl-propyl] 4-[4-(1-methyl-1H-pyrazol-4-yl)-benzyl]-pyrrolo[1,2-b]pyridazine-2-carboxamide]

- EC50 [1]: 343 nM
Structure (SMILES): Cn1cc(-c2ccc(Cc3cc(C(=O)NCC4CCOC4)nn4cccc34)cc2)cn1 (stereo not drawn) [Example 35, N-[Tetrahydrofuran-3-ylmethyl] 4-[4-(1-methyl-1H-pyrazol-4-yl)-benzyl]-pyrrolo[1,2-b]pyridazine-2-carboxamide]

- EC50 [1]: 555 nM
Structure (SMILES): O=C(N[C@H]1CCCC[C@@H]1O)c1cc(Cc2ccc(Cl)cc2)c2cccn2n1 [Example 2, N-[(1S,2S)-2-Hydroxycyclohexyl]-4-(4-chlorobenzyl)-pyrrolo[1,2-b]pyridazine-2-carboxamide]

- EC50 [1]: 2850 nM
Structure (SMILES): O=C(NC1CCOC1)c1cc(Cc2ccc(-c3cccnc3)cc2)c2cccn2n1 (stereo not drawn) [Example 34, N-[Tetrahydrofuran-3-yl] 4-[4-(3-pyridyl)-benzyl]-pyrrolo[1,2-b]pyridazine-2-carboxamide]

- EC50 [1]: 1550 nM
Structure (SMILES): O=C(NCCO)c1cc(Cc2ccc(Br)cc2)c2cccn2n1 [Example 12, N-[2-hydroxyethyl]-4-(4-bromobenzyl)-pyrrolo[1,2-b]pyridazine-2-carboxamide]

- AUC(0-t) ([2]; intravenous (bolus), 1 mg/kg): 8200 ± 1560 ng·h/mL
- clearance ([2]; intravenous (bolus), 1 mg/kg): 1.9 ± 0.5 mL/min/kg
- half-life ([2]; intravenous (bolus), 1 mg/kg): 8.1 ± 1.4 h
- bioavailability [2]: 58 ± 2%
- AUC(0-t) ([2]; oral (gavage), 3 mg/kg): 14200 ± 493 ng·h/mL
- Cmax ([2]; oral (gavage), 3 mg/kg): 1060 ± 257 ng/mL
- half-life ([2]; oral (gavage), 3 mg/kg): 8.7 ± 3 h
Structure (SMILES): Cn1cc(-c2ccc(Cc3cc(C(=O)NC4CCOCC4)nn4cccc34)cc2)cn1 [Example 21, N-[Tetrahydropyran-4-yl] 4-[4-(1-methyl-1H-pyrazol-4-yl)-benzyl]-pyrrolo[1,2-b]pyridazine-2-carboxamide]

- EC50 [1]: 518 nM
Structure (SMILES): O=C(N[C@H]1CCCC[C@@H]1O)c1cc(Cc2ccc(Cc3ccnc(F)c3)cc2)c2cccn2n1 [Example 50, N-[(1S,2S)-2-Hydroxycyclohexyl]-4-[4-(2-fluoropyridin-4-yl-methyl)-benzyl]-pyrrolo[1,2-b]pyridazine-2-carboxamide]

- EC50 [1]: 2020 nM
Structure (SMILES): Cn1cc(-c2ccc(Cc3cc(C(=O)NC4CCOC4)nn4cccc34)cc2)cn1 (stereo not drawn) [Example 32, N-[Tetrahydrofuran-3-yl] 4-[4-(1-methyl-1H-pyrazol-4-yl)-benzyl]-pyrrolo[1,2-b]pyridazine-2-carboxamide]

- EC50 [1]: 1000 nM
Structure (SMILES): CCC(CO)NC(=O)c1cc(Cc2ccc(Br)cc2)c2cccn2n1 (stereo not drawn) [Example 16, N-[1-Hydroxymethyl-propyl]-4-(4-bromobenzyl)-pyrrolo[1,2-b]pyridazine-2-carboxamide]

- EC50 [1]: 941 nM
Structure (SMILES): CC(C)(O)CNC(=O)c1cc(Cc2ccc(Cl)cc2)c2cccn2n1 [Example 3, N-[2-Hydroxy-2-methyl-propyl]-4-(4-chlorobenzyl)-pyrrolo[1,2-b]pyridazine-2-carboxamide]

- EC50 [1]: 411 nM
Structure (SMILES): CC(C)C(CO)NC(=O)c1cc(Cc2ccc(-c3cnn(C)c3)cc2)c2cccn2n1 (stereo not drawn) [Example 37, N-[1-Hydroxymethyl-2-methylpropyl] 4-[4-(1-methyl-1H-pyrazol-4-yl)-benzyl]-pyrrolo[1,2-b]pyridazine-2-carboxamide]

- EC50 [1]: 1150 nM
Structure (SMILES): CCC(CO)NC(=O)c1cc(Cc2ccc(-c3cnn(C)c3)cc2)c2cccn2n1 (stereo not drawn) [Example 36, N-[l-Hydroxymethyl-propyl] 4-[4-(1-methyl-1H-pyrazol-4-yl)-benzyl]-pyrrolo[1,2-b]pyridazine-2-carboxamide]

- EC50 [1]: 344 nM
Structure (SMILES): O=C(N[C@H]1CCCC[C@@H]1O)c1cc(Cc2ccc(Br)cc2)c2cccn2n1 [Example 5, N-[(1S,2S)-2-Hydroxycyclohexyl]-4-(4-bromobenzyl)-pyrrolo[1,2-b]pyridazine-2-carboxamide]

- EC50 [1]: 2110 nM
Structure (SMILES): O=C(NC1CCOC1)c1cc(Cc2ccc(-c3ccncc3)cc2)c2cccn2n1 (stereo not drawn) [Example 33, N-[Tetrahydrofuran-3-yl] 4-[4-(4-pyridyl)-benzyl]-pyrrolo[1,2-b]pyridazine-2-carboxamide]

- AUC(0-t) ([2]; intravenous (bolus), 1 mg/kg): 1130 ± 61 ng·h/mL
- clearance ([2]; intravenous (bolus), 1 mg/kg): 14.4 ± 1 mL/min/kg
- half-life ([2]; intravenous (bolus), 1 mg/kg): 1.8 ± 0.2 h
- bioavailability [2]: 71 ± 4%
- AUC(0-t) ([2]; oral (gavage), 3 mg/kg): 2390 ± 129 ng·h/mL
- Cmax ([2]; oral (gavage), 3 mg/kg): 762 ± 80 ng/mL
- half-life ([2]; oral (gavage), 3 mg/kg): 1.77 ± 0.07 h
Structure (SMILES): O=C(N[C@H]1CCCC[C@@H]1O)c1cc(Cc2ccc(-c3cccnc3)cc2)c2cccn2n1 (stereo in doubt) [Example 26, N-[(1S,2S)-2-Hydroxycyclohexyl] 4-[4-(3-pyridyl)-benzyl]-pyrrolo[1,2-b]pyridazine-2-carboxamide]

- EC50 [1]: 847 nM
Structure (SMILES): O=C(N[C@H]1CCCC[C@@H]1O)c1cc(Cc2cccc(F)c2)c2cccn2n1 [Example 7, N-[(1S,2S)-2-Hydroxycyclohexyl]-4-(3-fluorobenzyl)-pyrrolo[1,2-b]pyridazine-2-carboxamide]

- EC50 [1]: 586 nM
Structure (SMILES): O=C(NC1CCOCC1)c1cc(Cc2ccc(-c3cccnc3)cc2)c2cccn2n1 [Example 28, N-[Tetrahydropyran-4-yl] 4-[4-(3-pyridyl)-benzyl]-pyrrolo[1,2-b]pyridazine-2-carboxamide]

- EC50 [1]: 3990 nM
Structure (SMILES): O=C(NCC1(O)CCOCC1)c1cc(Cc2ccc(Cl)cc2)c2cccn2n1 [Example 6, N-[(4-Hydroxy-tetrahydro-pyran-4-ylmethyl)]-4-(4-chlorobenzyl)-pyrrolo[1,2-b]pyridazine-2-carboxamide]

- EC50 [1]: 1020 nM
Structure (SMILES): O=C(N[C@H]1CCCC[C@@H]1O)c1cc(Cc2ccc(-c3ccc(F)cc3)cc2)c2cccn2n1 (stereo in doubt) [Example 23, N-[(1S,2S)-2-Hydroxycyclohexyl] 4-[4-(4-fluorophenyl)-benzyl]-pyrrolo[1,2-b]pyridazine-2-carboxamide]

- AUC(0-t) ([2]; intravenous (bolus), 1 mg/kg): 687 ± 50 ng·h/mL
- clearance ([2]; intravenous (bolus), 1 mg/kg): 24 ± 1.8 mL/min/kg
- half-life ([2]; intravenous (bolus), 1 mg/kg): 1.1 ± 0.3 h
- bioavailability [2]: 49 ± 16%
- AUC(0-t) ([2]; oral (gavage), 3 mg/kg): 1000 ± 320 ng·h/mL
- Cmax ([2]; oral (gavage), 3 mg/kg): 397 ± 162 ng/mL
- half-life ([2]; oral (gavage), 3 mg/kg): 1.06 ± 0.08 h
Structure (SMILES): O=C(N[C@H]1CCCC[C@@H]1O)c1cc(Cc2ccc(-c3ccncc3)cc2)c2cccn2n1 (stereo in doubt) [Example 27, N-[(1S,2S)-2-Hydroxycyclohexyl] 4-[4-(4-pyridyl)-benzyl]-pyrrolo[1,2-b]pyridazine-2-carboxamide]
